Article PMC5388737, “Exploring the Role of CYP3A4 Mediated Drug Metabolism in the Pharmacological Modulation of Nitric Oxide Production” (Frontiers in Pharmacology, 2017)
Values after ≈ are worked out from the molar mass of the structure shown. Where two headings read alike, the source gives them in different places.

Legend:
[1] = tested on: NO production in LPS stimulated RAW 264.7 macrophages; assay: NO production in LPS stimulated RAW 264.7 murine macrophages (Griess assay); assay type: cell-based, mouse; conditions: for IC50: Mus musculus, RAW264.7
Description: The mouse macrophage cells, RAW264.7 (ATCC® TIB-71™) were obtained from ATCC and cultured in Dulbecco's Modified Eagle Medium (DMEM), supplemented with 10% FBS and 2 mM l-glutamine, in a humidified 5% CO2 atmosphere at 37°C. All cell handling steps were carried out using the SelecT automated cell culture system. RAW264.7 cells were seeded into 96-well plates at a density of 20 × 10^3 cells per well and grown to approximately 50% of confluence (24 h). They were cultured for another 24 h with each of the test compounds described above (5 μL of stock serial dilutions in 20% DMSO were dispensed into 190 μL of fresh medium using Perkin Elmer Evolution P3, Waltham, MA,). Afterwards, these cells were stimulated with LPS (5 μL of 6 μg/mL were dispensed using a Thermo Scientific Multidrop Combi dispenser, MTX Lab Systems, Vienna, VA). Untreated (5 μL of 20% DMSO, compound vehicle) and unstimulated (5 μL of purified water, LPS vehicle) cells were used as negative controls (n = 4) while untreated but stimulated cells were used as positive controls (n = 4) in each assay plate.
Test compound activities were calculated automatically using the Genedata Screener software (Genedata AG, Basel, Switzerland), and the percentage inhibition of each commercial compound was determined by Equation (1), integrated in the Genedata Screener software. Percentage of control of production of nitric oxide was: (1) Percentage of control = (Abswell − Absneg/Abspos − Absneg) ∗ 100 where Abswell is the absorbance measured per specific well; and Abspos and Absneg are the average absorbance measured for the positive (LPS/solvent vehicle) and negative controls (-LPS/solvent vehicle, respectively). […] Dexamethasone was used as positive control standard. All compounds were tested in triplicate (n = 3) in two different days.

[2] = RXT metabolite profile in HLM incubations (LC-HRMS); assay type: in vitro ADME, human; conditions: RXT incubation with HLM; peak area of [M+H]+ ion
Description: Test compounds (ERY, RXT, CLT, and AZT) were incubated in HLM at an initial substrate concentration of 1 μM in a 96-well format. Standard high-throughput incubation conditions were used with time points of 0, 15, 30, 45, 60, and 90 min. Protein concentration was 1 mg/mL and NADPH was present at 4 mM. Reaction was quenched using an equal volume of AcN and then diluted 1:1 with water prior to analysis by liquid chromatography coupled to high resolution mass spectrometry (LC-HRMS): Chromatography. The incubations were analyzed using an Agilent Series 1290 LC system (Agilent Technologies, Santa Clara, CA, USA). All analyses were performed using a Supelco Discovery HS C18 (2.1 × 50 mm) 3 μm column that was held at 30°C. Solvent A contained water with 0.1% formic acid and solvent B contained AcN with 0.1% formic acid, and the flow rate was set at 400 μL/min. The gradient elution was performed as follows: 0–0.5 min 0% eluent B; 0.5–7 min 100% eluent B; 7–9 min 100% eluent B; 9–9.2 min 0% eluent B; and 9.2–10.5 min 0% eluent B. High resolution mass spectrometry: AB SCIEX TripleTOF 5600 quadrupole-time-of-flight mass spectrometer (Q-TOF-MS) in positive ESI mode (AB SCIEX, Concord, ON, Canada) was used with a generic method for data acquisition on all compounds and samples. The method consisted of a time of flight mass survey scan (TOF MS), followed by two information-dependent acquisitions (IDA) TOF MS/MS scans. The mass range was m/z 100–1,000 for both MS and MS/MS. An accumulation time of 100 ms was used for each scan. Mass defect triggered IDA was used for the MS/MS scans (collision energy of 35 eV with a spread of ±10 eV). External mass calibration was performed automatically using a calibrant delivery system. Data processing was performed using MultiQuant Software and MetabolitePilot Software (AB SCIEX, Concord, ON, Canada) to process the TOF MS data and generate all quantitative information. An extracted ion current (XIC) window of ±10 mDa was used for all compounds. […]

[3] = In vitro metabolic stability in human liver microsomes; assay type: in vitro ADME; conditions: HLM 1 mg/mL, 1 μM substrate, NADPH, read-out: Met. stability T1/2
Description: Protein concentration was 1 mg/mL and NADPH was present at 4 mM. Reaction was quenched using an equal volume of AcN and then diluted 1:1 with water prior to analysis by liquid chromatography coupled to high resolution mass spectrometry (LC-HRMS): Chromatography. The incubations were analyzed using an Agilent Series 1290 LC system (Agilent Technologies, Santa Clara, CA, USA). […] Solvent A contained water with 0.1% formic acid and solvent B contained AcN with 0.1% formic acid, and the flow rate was set at 400 μL/min. The gradient elution was performed as follows: 0-0.5 min 0% eluent B; 0.5-7 min 100% eluent B; 7-9 min 100% eluent B; 9-9.2 min 0% eluent B; and 9.2-10.5 min 0% eluent B. High resolution mass spectrometry: AB SCIEX TripleTOF 5600 quadrupole-time-of-flight mass spectrometer (Q-TOF-MS) in positive ESI mode (AB SCIEX, Concord, ON, Canada) was used with a generic method for data acquisition on all compounds and samples. The method consisted of a time of flight mass survey scan (TOF MS), followed by two information-dependent acquisitions (IDA) TOF MS/MS scans. […] An accumulation time of 100 ms was used for each scan. Mass defect triggered IDA was used for the MS/MS scans (collision energy of 35 eV with a spread of ±10 eV). External mass calibration was performed automatically using a calibrant delivery system. Data processing was performed using MultiQuant Software and MetabolitePilot Software (AB SCIEX, Concord, ON, Canada) to process the TOF MS data and generate all quantitative information. An extracted ion current (XIC) window of ±10 mDa was used for all compounds. Peak areas were used to plot the Ln % remaining relative to t = 0.

[4] = Turbidimetric kinetic aqueous solubility (NIVA-CYPI-KS); assay type: physicochemical; conditions: potassium phosphate buffer, 37 °C, pH 7.4, aqueous buffer, kinetic from dmso stock, potassium phosphate buffer pH 7.4, 2 h, turbidimetry 620 nm
Description: (§1) Serial dilutions of test compounds in 100% DMSO were carried out on a Biomek FX workstation coupled with a stacker carrousel (Beckman Coulter Inc. Brea, California). […] Compounds for NO production assessment were also prepared from serial dilutions in 100% DMSO (20 μL) which were combined with water (80 μL).
(§2) Briefly, CYP3A4 inhibition studies were conducted using human recombinant c-DNA expressed CYP3A4 enzymes by quantification of non-fluorescent substrate, 7-benzyloxy-4-(trifluoromethyl) coumarin (BFC) transformation to a fluorescent product (7-HFC), which is mediated by CYP3A4. For aqueous solubility assessment, serial dilutions of test compounds (imidazole derivatives and macrolides) dissolved in DMSO/AcN [35:65] [v/v] (2 μL) were combined with a 180 μL potassium phosphate buffer (pH 7.4) using an Evolution P3 liquid handling station. Then the plates were incubated for 2 h at 37°C to allow slow compound precipitation. Thereafter, absorbance was measured at 620 nm by an EnVision multilabel plate reader. Absorbance signals were used to determine compound solubility limits. Pyrene was used as standard control for precipitation in turbidimetric kinetic solubility determination. […] Finally, reaction product (7-HFC) formation was quantify using florescence measurements. All compounds were tested in triplicate in two different days.

[5] = target: human recombinant c-DNA expressed CYP3A4 (Homo sapiens, UniProt P08684); assay: CYP3A4 reversible inhibition (NIVA-CYPI-KS, BFC substrate)
Chain of human recombinant c-DNA expressed CYP3A4 (P08684 whole entry): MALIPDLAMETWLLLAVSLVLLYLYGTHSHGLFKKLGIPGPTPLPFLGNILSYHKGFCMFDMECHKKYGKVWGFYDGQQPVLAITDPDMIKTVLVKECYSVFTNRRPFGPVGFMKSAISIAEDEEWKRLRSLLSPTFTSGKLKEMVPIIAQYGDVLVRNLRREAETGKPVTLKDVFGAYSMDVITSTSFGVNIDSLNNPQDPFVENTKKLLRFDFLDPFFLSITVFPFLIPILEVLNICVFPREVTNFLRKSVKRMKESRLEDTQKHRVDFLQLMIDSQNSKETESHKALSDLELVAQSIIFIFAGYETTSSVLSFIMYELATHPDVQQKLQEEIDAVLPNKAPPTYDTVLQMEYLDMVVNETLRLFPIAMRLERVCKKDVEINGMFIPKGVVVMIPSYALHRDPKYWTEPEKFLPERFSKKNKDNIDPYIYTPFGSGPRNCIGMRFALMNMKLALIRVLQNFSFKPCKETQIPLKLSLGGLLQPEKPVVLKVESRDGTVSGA
Description: as §1, §2

CYP3A4 = CYP3A4 (Homo sapiens, UniProt P08684); assay: in vitro; conditions: recombinant enzyme, pH 7.4
Chain of CYP3A4 (P08684 whole entry): as above
Description: Control samples were prepared in the absence of test compounds by the addition of solvent alone.
Briefly, the observed inactivation rate constant at each macrolide concentration was calculated from the initial slopes of the remaining enzyme activity, plotted semi-logarithmically against the pre-incubation time. Non-linear regression analysis of the negative slopes against inhibitor concentration enables Kinact and KI to be calculated. […] All compounds were tested in triplicate in two different days for every methodology studied. […].

[6] = tested on: primary cultures of alveolar rat macrophages; parameters: method as in Tamaoki et al., 1999; Kohri et al., 2000; conditions: ref Tamaoki et al., 1999, Kohri et al., 2000; cited from earlier work
[7] = inferred from relative composition of the RXT metabolite mixture, read-out: inferred IC50 for inactivation of NO production
[8] = LPS stimulated RAW 264.7, 24 h, concentrations with viability <80% rejected, read-out: NO production IC50
[9] = read-out: Solubility Range Lower bound
[10] = read-out: Solubility Range Upper bound

Area (%) relative content of parent and metabolites [2] | half-life at 1 μM [3] | solubility at 2 h [4, 9] | solubility at 2 h [4, 10] | SMILES | IC50 [1, 8] | other results
2% |  |  |  | CCC1OC(=O)C(C)C(OC2CC(C)(OC)C(O)C(C)O2)C(C)C(OC2OC(C)CC(NC)C2O)C(C)(O)CC(C)C(=NO)C(C)C(O)C1(C)O (stereo not drawn) [M5, Demethylated ERY oxime] |  | IC50 [1, 7]: 4.74 µg/mL
20% |  |  |  | CCC1OC(=O)C(C)C(OC2CC(C)(OC)C(O)C(C)O2)C(C)C(OC2OC(C)CC(N(C)C)C2O)C(C)(O)CC(C)C(=NO)C(C)C(O)C1(C)O (stereo not drawn) [M1, ERY oxime] |  | IC50 [1, 7]: 23.1 µg/mL
65% | 38.1 min | > 86 µM | > 86 µM | CC[C@H]1OC(=O)[C@H](C)[C@@H](O[C@H]2C[C@@](C)(OC)[C@@H](O)[C@H](C)O2)[C@H](C)[C@@H](O[C@@H]2O[C@H](C)C[C@H](N(C)C)[C@H]2O)[C@](C)(O)C[C@@H](C)/C(=N\OCOCCOC)[C@H](C)[C@@H](O)[C@]1(C)O [Roxythromycin, (E)-ERY-9-[O-[(2-methoxyethoxy)methyl]oxime]] | > 250 µM | inactivation of NO production ([1]; from 0.488 to 250 μM, LPS stimulated RAW 264.7): no inactivation at all; IC50 [5]: 6.41 µM; CYP3A4 TDI KI (CYP3A4): 0.29 µM; kinact (CYP3A4): 0.000715 s⁻¹; IC50 in NO production [6]: 5 µg/mL (≈ 5.97 µM)
 |  | 8.62 µM (≈ 3.59 µg/mL) | 34.5 µM (≈ 14.3 µg/mL) | Clc1ccc(COC(Cn2ccnc2)c2ccc(Cl)cc2Cl)c(Cl)c1 (stereo not drawn) [Miconazole, miconazole] |  | 
 |  | 2.59 µM (≈ 0.893 µg/mL) | 10.3 µM (≈ 3.57 µg/mL) | Clc1ccccc1C(c1ccccc1)(c1ccccc1)n1ccnc1 [Clotrimazole, clotrimazole] |  | 

Second part, the compound before the results:

SMILES | Area (%) relative content of parent and metabolites [2] | half-life at 1 μM [3] | solubility at 2 h [4, 9] | solubility at 2 h [4, 10] | IC50 [1, 8] | other results
CC[C@H]1OC(=O)[C@H](C)[C@@H](O[C@H]2C[C@@](C)(OC)[C@@H](O)[C@H](C)O2)[C@H](C)[C@@H](O[C@@H]2O[C@H](C)C[C@H](N(C)C)[C@H]2O)[C@](C)(O)C[C@@H](C)CN(C)[C@H](C)[C@@H](O)[C@]1(C)O [Azithromycin] |  | > 60 min | > 86 µM | > 86 µM | > 250 µM | NO production, percentage of control ([1]; 250 μM (highest noncytotoxic dose), LPS stimulated RAW 264.7): 53.82 % of control
C[C@@H]1C[C@H]2[C@@H]3CCC4=CC(=O)C=C[C@]4(C)[C@@]3(F)[C@@H](O)C[C@]2(C)[C@@]1(O)C(=O)CO [Dexamethasone] |  |  |  |  | 0.00721 µM | 
CC(=O)N1CCN(c2ccc(OCC3COC(Cn4ccnc4)(c4ccc(Cl)cc4Cl)O3)cc2)CC1 (stereo not drawn) [Ketoconazole, ketoconazole] |  |  |  |  | > 10 µM | 
CC[C@H]1OC(=O)[C@H](C)[C@@H](O[C@H]2C[C@@](C)(OC)[C@@H](O)[C@H](C)O2)[C@H](C)[C@@H](O[C@@H]2O[C@H](C)C[C@H](N(C)C)[C@H]2O)[C@](C)(O)C[C@@H](C)C(=O)[C@H](C)[C@@H](O)[C@]1(C)O [Erythromycin, erythromycin] |  | 21.7 min | > 86 µM | > 86 µM | > 250 µM | IC50 [5]: 3.21 µM
CC[C@H]1OC(=O)[C@H](C)[C@@H](O[C@H]2C[C@@](C)(OC)[C@@H](O)[C@H](C)O2)[C@H](C)[C@@H](O[C@@H]2O[C@H](C)C[C@H](N(C)C)[C@H]2O)[C@](C)(OC)C[C@@H](C)C(=O)[C@H](C)[C@@H](O)[C@]1(C)O [Claritromycin, clarithromycin] |  | 50.6 min | > 86 µM | > 86 µM | > 62.5 µM | NO production, percentage of control ([1]; 62.5 μM (highest noncytotoxic dose), LPS stimulated RAW 264.7): 85.2%; CYP3A4 TDI KI (CYP3A4): 2.68 µM
